Assay results as given in patent publication US11884661B2, “3-substituted propionic acids as αV integrin inhibitors” (BRISTOL-MYERS SQUIBB COMPANY, priority 2016, dated 2024).
pIC50: −log10 of the molar value.

Tests used:
human αVβ5 = human αVβ5 (Homo sapiens, UniProt P06756+P18084); assay: human αVβ5 HTRF binding assay
Experimental: (§1) All binding assays used the HTRF (homogeneous time resolved fluorescence) technology from Cisbio International, therefore all assays are described as HTRF binding assays. The assay results for the Examples are listed above together with the characterization data. The HTRF binding assays are established for the following integrins: human αVβ6, human αVβ1, human αVβ3, human αVβ5, and human αVβ8. All assays used the following assay buffer: 20 mM Tris, pH 7.4, 1 mM MgCl2, 1 mM MnCl2, 0.01% Tween 20, and 0.01% BSA. Alternatively, a SPA-based assay was used for evaluation of receptor binding. […]

human αVβ8 = human αVβ8 (Homo sapiens, UniProt P06756+P26012); assay: human αVβ8 HTRF binding assay
Sequence of human αVβ8 (P06756 31-992 limits assumed): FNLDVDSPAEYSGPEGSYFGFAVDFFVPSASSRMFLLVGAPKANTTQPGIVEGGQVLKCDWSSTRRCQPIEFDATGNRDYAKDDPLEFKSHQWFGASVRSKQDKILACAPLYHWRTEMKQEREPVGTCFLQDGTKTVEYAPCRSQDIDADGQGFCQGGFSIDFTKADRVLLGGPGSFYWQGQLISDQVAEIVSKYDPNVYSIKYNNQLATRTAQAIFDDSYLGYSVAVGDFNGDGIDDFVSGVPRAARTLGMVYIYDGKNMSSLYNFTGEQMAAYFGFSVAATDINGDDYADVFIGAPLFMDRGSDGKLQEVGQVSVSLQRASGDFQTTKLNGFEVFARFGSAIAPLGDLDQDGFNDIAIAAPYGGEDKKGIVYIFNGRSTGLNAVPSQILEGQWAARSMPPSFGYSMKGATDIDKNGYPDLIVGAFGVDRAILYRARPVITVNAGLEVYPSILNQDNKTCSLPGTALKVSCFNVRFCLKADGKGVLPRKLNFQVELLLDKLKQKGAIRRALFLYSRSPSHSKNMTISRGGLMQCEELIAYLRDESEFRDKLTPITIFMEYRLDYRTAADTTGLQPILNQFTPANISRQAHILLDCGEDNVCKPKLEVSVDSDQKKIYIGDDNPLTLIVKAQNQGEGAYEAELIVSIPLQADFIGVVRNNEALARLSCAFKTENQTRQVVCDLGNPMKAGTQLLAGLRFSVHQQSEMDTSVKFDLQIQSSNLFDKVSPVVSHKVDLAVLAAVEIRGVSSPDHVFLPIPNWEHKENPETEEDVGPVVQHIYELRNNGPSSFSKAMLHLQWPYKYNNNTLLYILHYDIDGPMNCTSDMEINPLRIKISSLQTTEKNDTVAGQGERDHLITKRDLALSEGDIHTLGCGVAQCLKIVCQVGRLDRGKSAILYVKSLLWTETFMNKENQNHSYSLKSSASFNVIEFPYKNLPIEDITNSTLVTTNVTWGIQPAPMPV
Sequence of human αVβ8 (P26012 43-684 limits assumed): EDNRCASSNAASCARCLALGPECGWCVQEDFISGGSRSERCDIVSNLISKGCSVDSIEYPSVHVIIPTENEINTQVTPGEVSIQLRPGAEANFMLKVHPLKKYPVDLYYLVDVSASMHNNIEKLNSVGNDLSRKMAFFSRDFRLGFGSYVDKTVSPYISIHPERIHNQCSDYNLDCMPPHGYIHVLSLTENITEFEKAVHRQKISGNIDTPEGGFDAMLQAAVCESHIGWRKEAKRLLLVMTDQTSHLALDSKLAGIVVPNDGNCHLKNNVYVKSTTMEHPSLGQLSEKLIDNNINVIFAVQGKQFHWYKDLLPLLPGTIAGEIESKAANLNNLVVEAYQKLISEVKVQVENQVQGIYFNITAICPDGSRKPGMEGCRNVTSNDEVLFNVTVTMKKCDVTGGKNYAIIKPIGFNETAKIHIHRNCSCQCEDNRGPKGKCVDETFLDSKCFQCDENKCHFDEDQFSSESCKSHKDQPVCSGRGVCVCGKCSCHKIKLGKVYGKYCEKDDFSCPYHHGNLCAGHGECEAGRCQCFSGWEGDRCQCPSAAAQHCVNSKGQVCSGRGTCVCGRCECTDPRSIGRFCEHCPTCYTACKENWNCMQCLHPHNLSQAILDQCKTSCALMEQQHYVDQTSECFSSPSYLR
Experimental: as §1

human αVβ6 = biological target: T1, human αVβ6 (Homo sapiens, UniProt P06756+P18564); assay: human αVβ6 HTRF binding assay; conditions: recombinant human αVβ6 integrin, FITC-conjugated fibronectin
T1 construct: purchased R & D systems 3817-AV
T1 sequence (P06756 31-992 limits assumed): as the sequence (P06756 31-992 limits assumed) above
T1 sequence (P18564 22-707 limits assumed): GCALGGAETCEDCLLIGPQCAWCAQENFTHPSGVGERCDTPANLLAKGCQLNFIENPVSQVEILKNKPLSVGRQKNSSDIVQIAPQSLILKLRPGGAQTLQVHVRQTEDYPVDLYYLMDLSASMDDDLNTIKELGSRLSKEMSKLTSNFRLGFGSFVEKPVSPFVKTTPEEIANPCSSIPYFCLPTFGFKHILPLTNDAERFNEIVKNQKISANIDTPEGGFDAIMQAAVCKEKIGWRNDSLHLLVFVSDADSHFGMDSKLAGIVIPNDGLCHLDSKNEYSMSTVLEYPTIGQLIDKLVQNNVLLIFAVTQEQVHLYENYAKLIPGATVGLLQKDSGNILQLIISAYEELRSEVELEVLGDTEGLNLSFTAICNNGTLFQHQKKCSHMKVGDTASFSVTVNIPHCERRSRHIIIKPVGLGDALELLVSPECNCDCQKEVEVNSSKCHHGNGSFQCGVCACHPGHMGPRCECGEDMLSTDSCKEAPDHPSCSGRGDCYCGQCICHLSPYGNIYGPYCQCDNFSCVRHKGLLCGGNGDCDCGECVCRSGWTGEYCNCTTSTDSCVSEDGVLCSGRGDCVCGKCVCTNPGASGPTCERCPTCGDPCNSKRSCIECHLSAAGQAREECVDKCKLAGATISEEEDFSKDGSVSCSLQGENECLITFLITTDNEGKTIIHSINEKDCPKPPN
Method in brief: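 Biotinylated recombinant αVβ6 (1.25 nM final) incubated with FITC-fibronectin (5 nM) 1 h at RT, then streptavidin-terbium (0.625 nM) added and incubated overnight at RT in the dark before HTRF read. Buffer: 20 mM Tris pH 7.4, 1 mM MgCl2, 1 mM MnCl2, 0.01% Tween 20, 0.01% BSA.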

human αVβ1 = human αVβ1 (Homo sapiens, UniProt P05556+P06756); assay: human αVβ1 HTRF binding assay
Sequence of human αVβ1 (P06756 31-992 limits assumed): as the sequence (P06756 31-992 limits assumed) above
Sequence of human αVβ1 (P05556 21-728 limits assumed): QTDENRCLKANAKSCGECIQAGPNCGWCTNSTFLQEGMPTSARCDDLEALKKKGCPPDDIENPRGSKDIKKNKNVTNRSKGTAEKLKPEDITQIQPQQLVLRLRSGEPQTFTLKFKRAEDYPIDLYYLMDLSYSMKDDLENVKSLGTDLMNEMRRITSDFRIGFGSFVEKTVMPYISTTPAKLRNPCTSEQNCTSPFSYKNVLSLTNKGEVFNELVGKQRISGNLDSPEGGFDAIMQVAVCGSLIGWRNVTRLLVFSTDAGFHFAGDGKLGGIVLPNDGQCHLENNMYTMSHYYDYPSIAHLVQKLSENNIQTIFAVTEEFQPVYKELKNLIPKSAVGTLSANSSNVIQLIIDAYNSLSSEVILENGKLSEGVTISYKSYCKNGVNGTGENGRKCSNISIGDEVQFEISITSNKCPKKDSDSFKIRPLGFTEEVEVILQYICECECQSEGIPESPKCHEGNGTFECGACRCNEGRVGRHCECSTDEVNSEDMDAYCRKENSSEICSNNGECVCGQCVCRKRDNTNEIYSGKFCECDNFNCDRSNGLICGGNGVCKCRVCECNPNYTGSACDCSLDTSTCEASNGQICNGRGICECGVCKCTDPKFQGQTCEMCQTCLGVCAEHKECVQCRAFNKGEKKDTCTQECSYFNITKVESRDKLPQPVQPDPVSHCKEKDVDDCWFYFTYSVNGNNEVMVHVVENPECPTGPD
Experimental: (§2) All binding assays used the HTRF (homogeneous time resolved fluorescence) technology from Cisbio International, therefore all assays are described as HTRF binding assays. The assay results for the Examples are listed above together with the characterization data. The HTRF binding assays are established for the following integrins: human αVβ6, human αVβ1, human αVβ3, human αVβ5, and human αVβ8. All assays used the following assay buffer: 20 mM Tris, pH 7.4, 1 mM MgCl2, 1 mM MnCl2, 0.01% Tween 20, and 0.01% BSA. Alternatively, a SPA-based assay was used for evaluation of receptor binding.
(§3) The following describes the components and a representative procedure for the human αVβ6 HTRF binding assay: Recombinant human αVβ6 Integrin (R & D systems, 3817-AV) was biotinylated. Biotinylated human αVβ6 Integrin was added to assay vessel at a final concentration of 1.25 nM. FITC-conjugated fibronectin (Cytoskeleton, FNR02) was then added at the final concentration of 5 nM. The mixture was centrifuged at 600 rpm for three minutes using Thermo Fisher Heraeus Multifuge X3 centrifuge and then incubated at RT for an hour. Streptavidin Terbium (Cisbio international 610STLB) was then added at the final concentration of 0.625 nM. The resulting mixture was centrifuged at 600 rpm for three minutes using Thermo Fisher Heraeus Multifuge X3 centrifuge and then incubated at room temperature overnight in dark before reading HTRF signals.

human αVβ3 = human αVβ3 (Homo sapiens, UniProt P05106+P06756); assay: human αVβ3 HTRF binding assay
Sequence of human αVβ3 (P06756 31-992 limits assumed): as the sequence (P06756 31-992 limits assumed) above
Sequence of human αVβ3 (P05106 27-718 limits assumed): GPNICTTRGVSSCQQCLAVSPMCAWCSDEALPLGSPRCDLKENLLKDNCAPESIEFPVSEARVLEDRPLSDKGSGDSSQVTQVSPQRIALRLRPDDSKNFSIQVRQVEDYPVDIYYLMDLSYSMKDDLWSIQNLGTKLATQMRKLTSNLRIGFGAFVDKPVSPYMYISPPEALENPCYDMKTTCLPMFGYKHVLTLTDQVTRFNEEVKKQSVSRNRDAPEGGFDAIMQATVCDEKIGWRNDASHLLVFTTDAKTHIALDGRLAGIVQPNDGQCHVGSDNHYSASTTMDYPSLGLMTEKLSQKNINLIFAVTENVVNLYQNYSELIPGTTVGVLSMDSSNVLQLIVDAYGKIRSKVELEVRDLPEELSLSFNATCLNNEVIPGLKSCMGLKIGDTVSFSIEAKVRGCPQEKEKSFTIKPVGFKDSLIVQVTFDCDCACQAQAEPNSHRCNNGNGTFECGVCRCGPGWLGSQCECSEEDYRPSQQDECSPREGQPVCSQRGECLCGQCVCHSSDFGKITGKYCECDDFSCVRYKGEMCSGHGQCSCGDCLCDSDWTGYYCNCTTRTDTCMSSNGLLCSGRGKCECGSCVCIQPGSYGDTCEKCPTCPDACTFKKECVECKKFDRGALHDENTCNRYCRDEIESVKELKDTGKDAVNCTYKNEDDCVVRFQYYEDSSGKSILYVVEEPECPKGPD
Experimental: as §2, §3

Sequence of human αVβ5 (P06756 31-992 limits assumed): as the sequence (P06756 31-992 limits assumed) above
Sequence of human αVβ5 (P18084 24-719 limits assumed): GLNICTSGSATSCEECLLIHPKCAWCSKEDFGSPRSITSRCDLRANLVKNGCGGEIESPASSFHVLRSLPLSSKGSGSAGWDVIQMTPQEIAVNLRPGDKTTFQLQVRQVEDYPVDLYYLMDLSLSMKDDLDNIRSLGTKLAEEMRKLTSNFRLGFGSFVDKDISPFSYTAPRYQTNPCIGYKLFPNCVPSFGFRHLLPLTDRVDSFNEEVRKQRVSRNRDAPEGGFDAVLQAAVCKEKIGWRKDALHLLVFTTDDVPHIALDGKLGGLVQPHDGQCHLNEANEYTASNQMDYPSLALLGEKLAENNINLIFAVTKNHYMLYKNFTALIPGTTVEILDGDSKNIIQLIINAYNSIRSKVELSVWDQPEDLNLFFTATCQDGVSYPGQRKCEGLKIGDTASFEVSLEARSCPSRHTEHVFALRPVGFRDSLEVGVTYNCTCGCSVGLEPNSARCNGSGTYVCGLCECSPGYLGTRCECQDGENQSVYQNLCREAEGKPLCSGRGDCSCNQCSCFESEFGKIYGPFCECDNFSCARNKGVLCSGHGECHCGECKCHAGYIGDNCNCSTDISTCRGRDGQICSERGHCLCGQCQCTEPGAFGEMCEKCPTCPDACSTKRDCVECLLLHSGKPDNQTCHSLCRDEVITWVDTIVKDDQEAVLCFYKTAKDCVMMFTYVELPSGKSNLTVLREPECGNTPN

Row | pIC50 (human αVβ5) | pIC50 (human αVβ8) | pIC50 (human αVβ6) | pIC50 (human αVβ1) | pIC50 (human αVβ3) | Structure (SMILES)
1 | 7.96 | 6.29 | 8.68 | 6.62 | 8.72 | COc1ccc(C(CC(=O)O)c2nc(CCCCc3ccc4c(n3)NCCC4)cs2)cn1 (single isomer, unassigned) [Example 14, 3-(6-Methoxypyridin-3-yl)-3-(4-(4-(5,6,7,8-tetrahydro-1,8-naphthyridin-2-yl)butyl)thiazol-2-yl)propanoic acid]
2 | 8.96 | 6.06 | 8.70 | 6.80 | 8.77 | COc1ccc(C(CC(=O)O)c2nc(CCCCc3ccc4c(n3)NCCC4)cs2)cc1F (single isomer, unassigned) [Example 37, 3-(3-Fluoro-4-methoxyphenyl)-3-(4-(4-(5,6,7,8-tetrahydro-1,8-naphthyridin-2-yl)butyl)thiazol-2-yl)propanoic acid]
3 | 8.00 | 6.74 | 8.85 | 5.19 | 8.36 | COc1ccc([C@H](CC(=O)O)N2CCC(CCCc3ccc4c(n3)NCCC4)C2)cn1 (stereo partly drawn) [Example 21, (3S)-3-(6-Methoxypyridin-3-yl)-3-(3-(3-(5,6,7,8-tetrahydro-1,8-naphthyridin-2-yl)propyl)pyrrolidin-1-yl)propanoic acid]
